Laboratory results reported in patent US9169268B2, “Use of 7-alkoxy fangchinoline compounds in preventing, alleviating and/or treating depression” (Peking University, priority 2012, dated 2015).

What was measured:
[1] = system: chronic unpredictable stress (CUS) model in rats; experiment: Elevated plus-maze (EPM) anxiety test in CUS model in rats; type: in vivo
Experimental: (§1) The chronic unpredictable stress model is usually used as a depression model. The experimental method is as follows. Stimulation includes forced swimming (10° C., 6 min), tail clamping (1 cm from the tail tip, 1 min), water deprivation (24 h), fasting (24 h), isolated housing (24 h), tail suspension (1 h), immobility (2 h), high-speed horizontal oscillation (120 times/min, 1 h), foot shock for 45 minutes (mean 1 mA, time course 1 s, once/min). These stressors were randomly scheduled over a one-week period and repeated throughout the 23-day experiment. The non-stress control group was housed under normal conditions. Time: between 9:00 a.m. and 2:00 p.m. Since Day 15, the animals in each group were daily intragastrically administered with the subject medicament and double distilled water based on body weight (blank group and CUS model group) respectively, 60 minutes before the stress. […] Behavior and sleep electroencephalogram analyses were carried out on Day 22-23 of the stress. On Day 21, 60 minutes after the final administration, a sucrose solution intake test was carried out and sleep electroencephalogram was recorded simultaneously. On Day 22, EPM and forced swimming tests were carried out.

[2] = system: chronic unpredictable stress (CUS) model in rats; experiment: Sucrose solution preference in CUS model in rats; type: in vivo; settings: 7 days
Experimental: as §1

[3] = system: chronic unpredictable stress (CUS) model in rats; experiment: Autonomous movement in CUS model in rats; type: in vivo; settings: 7 days
Experimental: as §1

GSK-3β = GSK-3β (Homo sapiens, UniProt P49841); experiment: GSK-3β activity assay (Z′-LYTE); type: biochemical; settings: n = 3; read-out: Mean EC50 in the inhibition of GSK-3β activity
Experimental: The GSK-3β phosphorylation level was determined by using a Z′-LYTE assay (Life Technologies). The assay was performed in a 384-well plate. The wells of the testing plate were divided into blank control wells (without the enzyme), enzyme control wells (without the testing substance), and testing wells (with the enzyme and the testing substance at various concentrations). The inhibition rate of the testing substance is expressed as: inhibition %=(E−S)/(E−B)×100, wherein E is the average emission ratio of enzyme control wells; B is the average emission ratio of blank control wells; S is the emission ratio of the testing sample wells. The median effective concentration of each compound (EC50 μM) was calculated by using the resultant inhibition rate of each sample at various concentrations.

[4] = Serum AST and ALT in mice after 14 days of intragastric administration; type: in vivo
Experimental: Blood was collected from epicanthal, stood at room temperature for about 2 hours, and centrifuged for 12 minutes at 3000 r/min after coagulation. The serum was removed and centrifuged again. Alanine transaminase (ALT) and aspartate transaminase (AST) levels were determined

[5] = system: chronic unpredictable stress (CUS) model in rats; experiment: Forced swimming test in chronic unpredictable stress (CUS) model in rats; type: in vivo; settings: 7 days
Experimental: as §1

[6] = mouse serum, 30 mg/kg/day intragastric, 14 days
[7] = mouse serum, 60 mg/kg/day intragastric, 14 days

GSK-3β, sequence (P49841 whole entry): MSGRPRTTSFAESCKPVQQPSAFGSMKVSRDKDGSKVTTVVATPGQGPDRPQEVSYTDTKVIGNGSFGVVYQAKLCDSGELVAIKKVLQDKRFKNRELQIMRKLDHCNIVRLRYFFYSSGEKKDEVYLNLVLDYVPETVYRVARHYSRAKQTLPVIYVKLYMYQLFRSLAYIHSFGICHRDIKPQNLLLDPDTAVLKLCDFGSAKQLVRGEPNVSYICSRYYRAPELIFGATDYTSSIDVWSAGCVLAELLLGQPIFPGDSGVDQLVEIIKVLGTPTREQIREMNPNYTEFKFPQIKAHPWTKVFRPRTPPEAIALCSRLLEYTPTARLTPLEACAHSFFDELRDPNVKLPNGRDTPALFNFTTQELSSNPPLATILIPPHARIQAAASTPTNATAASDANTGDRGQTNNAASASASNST

Row | Compound | Percentage of entries into open arms relative to total entries into arms ([1]; 30 mg/kg intragastric daily) | Percentage of residence time in open arms ([1]; 30 mg/kg intragastric daily) | Sucrose solution preference ([2]; 30 mg/kg intragastric daily) | Autonomous movement Distance ([3]; 30 mg/kg intragastric daily) | Autonomous movement Speed ([3]; 30 mg/kg intragastric daily) | EC50 (GSK-3β) [nM] | Percentage of entries into open arms relative to total entries into arms ([1]; 7.5 mg/kg intragastric daily) | Percentage of residence time in open arms ([1]; 7.5 mg/kg intragastric daily) | Percentage of entries into open arms relative to total entries into arms ([1]; 15 mg/kg intragastric daily) | Percentage of residence time in open arms ([1]; 15 mg/kg intragastric daily) | Sucrose solution preference ([2]; 7.5 mg/kg intragastric daily) | Sucrose solution preference ([2]; 15 mg/kg intragastric daily) | Autonomous movement Distance ([3]; 7.5 mg/kg intragastric daily) | Autonomous movement Speed ([3]; 7.5 mg/kg intragastric daily) | Autonomous movement Distance ([3]; 15 mg/kg intragastric daily) | Autonomous movement Speed ([3]; 15 mg/kg intragastric daily) | ALT ([4]; mouse, in vivo, 60 mg/kg/day) [U/L] | AST ([4]; mouse, in vivo, 60 mg/kg/day) [U/L] | further results
1 | COc1cc2c3cc1Oc1c(OC)c(OC)cc4c1[C@@H](Cc1ccc(O)c(c1)Oc1ccc(cc1)C[C@@H]3N(C)CC2)N(C)CC4 [berbamine, reference compound] | 38.3 ± 1.9% | 41.0 ± 3.0% | 55.05 ± 3.06% | 1387.56 ± 584.24 mm | 4.63 ± 1.49 mm/second | > 10000 |  |  |  |  |  |  |  |  |  |  |  |  | Percentage of entries into open arms relative to total entries into arms ([1]; 60 mg/kg intragastric daily): 37.5 ± 1.6%; Percentage of residence time in open arms ([1]; 60 mg/kg intragastric daily): 39.6 ± 4.2%; Sucrose solution preference ([2]; 60 mg/kg intragastric daily): 49.56 ± 4.27%; Autonomous movement Distance ([3]; 60 mg/kg intragastric daily): 1053.45 ± 476.33 mm; Autonomous movement Speed ([3]; 60 mg/kg intragastric daily): 3.51 ± 1.65 mm/second
2 | CCCOc1c(OC)cc2c3c1Oc1cc4c(cc1OC)CCN(C)C4Cc1ccc(cc1)Oc1cc(ccc1OC)CC3N(C)CC2 (centres unmarked) [Compound 6, 7-propoxy fangchinoline] | 57.3 ± 4.6^##,$$ % | 66.0 ± 4.2^##,$$ % | 90.4 ± 4.3^##,$$ % | 12566.27 ± 764.42^##,$$ mm | 41.89 ± 4.36^##,$$ mm/second | 1680 | 47.0 ± 2.6 % | 59.4 ± 3.3^##,$$ % | 50.5 ± 3.2 % | 64.1 ± 3.6^##,$$ % | 79.45 ± 3.3 % | 85.5 ± 3.6^##,$$ % | 8940.78 ± 714.35^##,$$ mm | 29.80 ± 2.64^##,$$ mm/second | 11574.92 ± 732.36^##,$$ mm | 38.58 ± 3.02^##,$$ mm/second | 92.3 ± 21.2 | 99.4 ± 21.1 | melting point: 174.8 to 176.3 °C; AST/ALT ([4]; mouse, in vivo, 60 mg/kg/day): 1.08 ± 0.27
3 | COc1ccc2cc1Oc1ccc(cc1)CC1c3cc(c(OC)cc3CCN1C)Oc1c(OC)c(OC)c(Cl)c3c1C(C2)N(C)CC3 (centres unmarked) [Compound 1, 5-chloro-7-methoxy fangchinoline] | 53.9 ± 3.5^##,$$ % | 60.6 ± 3.7^##,$$ % | 81.6 ± 3.7^##,$$ % | 10347.64 ± 923.01^##,$$ mm | 34.49 ± 3.75^##,$$ mm/second | 3210 | 41.2 ± 2.3 % | 53.6 ± 4.6^##,$$ % | 46.7 ± 3.4 % | 60.8 ± 4.0^##,$$ % | 69.6 ± 4.6 % | 78.8 ± 4.0^##,$$ % | 7581.17 ± 845.04^##,$$ mm | 25.27 ± 2.38^##,$$ mm/second | 9518.08 ± 704.12^##,$$ mm | 31.73 ± 3.44^##,$$ mm/second | 80.9 ± 21.4 | 117.7 ± 16.1 | AST/ALT ([4]; mouse, in vivo, 60 mg/kg/day): 1.45 ± 0.21
4 | CCOc1c(OC)c(Br)c2c3c1Oc1cc4c(cc1OC)CCN(C)C4Cc1ccc(cc1)Oc1cc(c(Br)cc1OC)CC3N(C)CC2 (centres unmarked) [Compound 5, 5,14-dibromo-7-ethoxy fangchinoline] |  |  | 91.5 ± 4.2^##,$$ % | 14561.84 ± 807.52^##,$$ mm | 48.54 ± 5.36^##,$$ mm/second | 1260 |  |  |  |  | 84.1 ± 3.3 % | 86.0 ± 3.5^##,$$ % | 13732.42 ± 732.45^##,$$ mm | 45.77 ± 2.64^##,$$ mm/second | 14003.63 ± 737.47^##,$$ mm | 46.68 ± 4.02^##,$$ mm/second | 91.7 ± 15.5 | 101.5 ± 18.7 | melting point: 186 to 188 °C
5 | COc1ccc2cc1Oc1ccc(cc1)C[C@H]1c3cc(c(OC)cc3CCN1C)Oc1c(OC)c(OC)cc3c1[C@H](C2)N(C)CC3 [tetrandrine, reference compound] | 43.8 ± 3.2% | 41.3 ± 3.0% | 67.7 ± 3.3 % | 1027.36 ± 456.76 mm | 3.42 ± 1.33 mm/second | 9020 | 38.0 ± 2.3% | 42.1 ± 3.7% | 39.5 ± 3.0% | 40.6 ± 4.8% | 55.4 ± 3.2% | 52.9 ± 3.7% | 1369.54 ± 532.47 mm | 4.57 ± 1.85 mm/second | 1124.37 ± 504.85 mm | 3.75 ± 1.98 mm/second |  |  | Percentage of entries into open arms relative to total entries into arms ([1]; 60 mg/kg intragastric daily): 46.2 ± 2.9 %; Percentage of residence time in open arms ([1]; 60 mg/kg intragastric daily): 42.8 ± 3.5%; Sucrose solution preference ([2]; 60 mg/kg intragastric daily): 70.2 ± 4.6 %; Autonomous movement Distance ([3]; 60 mg/kg intragastric daily): 1285.41 ± 401.24 mm; Autonomous movement Speed ([3]; 60 mg/kg intragastric daily): 4.28 ± 1.56 mm/second; AST activity and the AST/ALT ratio ([4]; mice, 30 mg/kg intragastric, 14 consecutive days): evidently enhanced; change in AST activity, ALT activity and the ratio thereof (AST/ALT) in blood serum ([4]; mice, 60 mg/kg intragastric, 14 consecutive days): all evidently enhanced; ALT [4, 6]: 83.8 ± 15.9 U/L; AST [4, 6]: 204.8 ± 21.8 U/L; AST/ALT [4, 6]: 2.44 ± 0.21; ALT [4, 7]: 113.2 ± 20.6 U/L; AST [4, 7]: 205.6 ± 22.8 U/L; AST/ALT [4, 7]: 1.82 ± 0.26
6 | 5-bromo-7-ethoxy fangchinoline [Compound 4] | 59.7 ± 5.3^##,$$ % | 68.6 ± 3.2^##,$$ % | 93.6 ± 3.2^##,$$ % | 14362.26 ± 771.52^##,$$ mm | 47.87 ± 5.36^##,$$ mm/second |  | 54.2 ± 2.6^##,$ % | 66.2 ± 3.4^##,$$ % | 55.3 ± 4.0^##,$ % | 69.5 ± 4.2^##,$$ % | 79.2 ± 3.4^##,$$ % | 81.5 ± 4.7^##,$$ % | 13257.21 ± 756.36^##,$$ mm | 44.19 ± 2.64^##,$$ mm/second | 13615.71 ± 743.43^##,$$ mm | 45.39 ± 4.02^##,$$ mm/second |  |  | Forced swimming Immobility time ([5]; 7.5 mg/kg intragastric daily): 134.3 ± 4.4^##,$$ seconds; Forced swimming Immobility time ([5]; 15 mg/kg intragastric daily): 96.1 ± 3.74^##,$$ seconds; Forced swimming Immobility time ([5]; 30 mg/kg intragastric daily): 60.5 ± 5.3^##,$$ seconds
7 | COc1ccc2cc1Oc1ccc(cc1)CC1c3cc(c(OC)cc3CCN1C)Oc1c(OC(C)C)c(OC)cc3c1C(C2)N(C)CC3 (centres unmarked) [Compound 8, 7-isopropoxy fangchinoline] |  |  | 90.1 ± 3.8^##,$$ % | 13053.78 ± 1005.46^##,$$ mm | 43.51 ± 5.36^##,$$ mm/second | 1350 |  |  |  |  | 80.5 ± 3.6 % | 84.7 ± 3.2^##,$ % | 9968.41 ± 965.52^##,$$ mm | 33.22 ± 2.64^##,$$ mm/second | 12194.23 ± 887.65^##,$$ mm | 40.64 ± 4.02^##,$$ mm/second | 80.1 ± 21.3 | 89.2 ± 16.7 | 
